The record followed here is ChEMBL document CHEMBL5154916, “Multiparameter Optimization of Naphthyridine Derivatives as Selective α5-GABAA Receptor Negative Allosteric Modulators” (J Med Chem, 2022).

By IC50 is commonly meant the concentration at which inhibition is half-maximal. A lower IC50 goes with greater potency. As a reminder, the bioavailability is the share of a dose that reaches the circulation, judged against a reference dose that is usually intravenous. The Cmax is the peak of the concentration-time curve. For orientation: Vd means the apparent volume that relates the amount in the body to the concentration in plasma or blood. The AUC(0-inf) is the area under the concentration-time curve extrapolated to infinity. Lower therefore signals less exposure. A word on the half-life: it is how long it takes for the measured level to halve. High values mean slow loss, low ones fast loss. Usually Papp stands for a coefficient for how fast a substance crosses the barrier.

Data set [1] deals with Cytochrome P450 2D6 (Homo sapiens, UniProt P10635). In words: Inhibition of CYP2D6 (unknown origin). It is filed as ADME.
The target in data set [2] is Cytochrome P450 2C19 (Homo sapiens, UniProt P33261). Description: Inhibition of CYP2C19 (unknown origin). It is filed as ADME.
Data set [3] is described as follows: Plasma level ratio in Wistar rat assessed as ratio between plasma concentration in PCP-induced toxicity Wistar rat model to plasma concentration in pro-cognitive activity for subchronic PCP-induced cognitive impairment associated schizophrenia Wistar rat model.
The target of data set [4] is GABA-A receptor; alpha-5/beta-3/gamma-2 (Homo sapiens) (UniProt P18507+P28472+P31644). Description: Negative allosteric modulation activity at human recombinant alpha5beta3gamma2 GABAA receptor stably expressed in HEK293 cells assessed as modulation at alpha5 subunit at 1 uM by Patch clamp method. Particulars: filed as negative allosteric modulator. The class given is cell-based. On the technique in general: Patch clamp records ionic current or voltage across a cell membrane.

Data set [5] can be described thus: Apparent permeability in human Caco2 cells assessed as permeability damage ratio at 1 uM by HPLC-UV analysis. It is filed as ADME, cell-based. Particulars: caco-2, 1 µM. Background: Caco-2 monolayers are a common model of the intestinal barrier.
Data set [6] relates to Rattus norvegicus. In words: Pro-cognitive activity in po dosed neonatal PCP-impaired social recognition Wistar rat model assessed as time spent social recognition administered 30 min before acquisition by social recognition test. The class given is functional. The following applies: 0.5 h, read-out: MED.
Data set [7] is described as follows: Metabolic stability in human hepatocyte assessed as intrinsic clearance measured per 10^6 cells. Particulars: hepatocytes, read-out: CLH. The class given is ADME, cell-based.
Data set [8] can be described thus: Bioavailability in Wistar rat at 1 mg/kg,po or 1 mg/kg, iv by HPLC-MS/MS analysis. The class given is ADME, organism-based. Particulars: in vivo.
The target in data set [9] is T1, Cytochrome P450 2C8 (Homo sapiens, UniProt P10632).
T1 sequence (P10632 whole entry): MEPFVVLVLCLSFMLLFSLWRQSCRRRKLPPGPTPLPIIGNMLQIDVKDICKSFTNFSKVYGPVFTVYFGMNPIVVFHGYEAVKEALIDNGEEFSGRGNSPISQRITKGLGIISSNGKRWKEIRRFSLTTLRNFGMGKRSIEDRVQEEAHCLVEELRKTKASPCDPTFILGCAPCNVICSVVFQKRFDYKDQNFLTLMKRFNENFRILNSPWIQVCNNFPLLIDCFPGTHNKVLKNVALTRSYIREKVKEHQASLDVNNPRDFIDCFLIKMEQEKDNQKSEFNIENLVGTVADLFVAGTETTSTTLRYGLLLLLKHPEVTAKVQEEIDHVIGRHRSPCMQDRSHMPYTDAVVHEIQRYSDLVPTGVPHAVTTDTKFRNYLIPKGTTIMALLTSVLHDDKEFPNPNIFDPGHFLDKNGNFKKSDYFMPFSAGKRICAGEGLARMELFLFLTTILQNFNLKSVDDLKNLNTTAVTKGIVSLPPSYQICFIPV
Description: Inhibition of CYP2C8 (unknown origin). The class given is ADME.

For data set [10], the target named is Voltage-gated inwardly rectifying potassium channel KCNH2 (Homo sapiens, UniProt Q12809). Description: Inhibition of hERG expressed in CHO cells stably at -80 mV holding potential by automated patch clamp method. The class given is toxicity, cell-based.
The test system of data set [11] is Rattus norvegicus. In words: Pro-cognitive activity in neonatal PCP-impaired social recognition Wistar rat model assessed as time spent in recognition of new juveniles at 3 mg/kg, po administered 30 min before acquisition by social recognition test. It is filed as functional, organism-based.
A short description of data set [12]: Cmax in Wistar rat total plasma at 1 mg/kg, po by HPLC-MS/MS analysis. Set-up: dose 1 mg/kg, route po. The class given is ADME, organism-based.
Data set [13] can be described thus: Volume of distribution in Wistar rat plasma at 1 mg/kg, iv by HPLC-MS/MS analysis. It is filed as ADME, organism-based.
A short description of data set [14]: AUC (0 to infinity) in Wistar rat total plasma at 1 mg/kg, iv by HPLC-MS/MS analysis. It is filed as ADME, organism-based. Also noted: time infinity, dose 1 mg/kg, route iv.
Data set [15] can be described thus: Free plasma concentration in subchronic PCP-induced cognitive impairment associated schizophrenia Wistar rat model at 10 mg/kg, po measured at 1.5 hr post dose by HPLC-MS/MS analysis. It is filed as ADME, organism-based. The following applies: in vivo.
A short description of data set [16]: Metabolic stability in human liver microsomes assessed as intrinsic clearance at 2.5 uM. The following applies: read-out: CLH. It is filed as ADME, Microsome. On the technique in general: Liver microsomes are a subcellular fraction often used to study metabolism.
Data set [17] in a line: Plasma protein binding in dog. The class given is ADME, cell-free, Canis lupus familiaris. Particulars: read-out: PPB (converted).
The target of data set [18] is GABA-A receptor; alpha-1/beta-3/gamma-2 (Homo sapiens) (UniProt P14867+P18507+P28472). Description: Negative allosteric modulation activity at human recombinant alpha1beta3gamma2 GABAA receptor stably expressed in HEK293 cells assessed as modulation at alpha1 subunit at 10 uM by Patch clamp method. It is filed as cell-based. Particulars: filed as negative allosteric modulator.

The species entered for data set [19] is Homo sapiens. In words: Selectivity ratio of Ki for human alpha1GABAA receptor to Ki for alpha2 GABAA receptor.
Data set [20] in a line: Half life in Wistar rat total plasma at 1 mg/kg, iv by HPLC-MS/MS analysis. It is filed as ADME, organism-based.
Data set [21] in a line: Apparent permeability in human Caco-2 cells at 1 uM by HPLC-UV analysis. It is filed as ADME, cell-based.
The target of data set [22] is Cytochrome P450 3A4 (Homo sapiens, UniProt P08684). In words: Inhibition of CYP3A4 (unknown origin). It is filed as ADME.

The source made the active and inactive calls. No cut-off for these calls is given here. A value given as a limit tells only on which side of the number the result lay.

Sequence of Cytochrome P450 3A4 (P08684 whole entry): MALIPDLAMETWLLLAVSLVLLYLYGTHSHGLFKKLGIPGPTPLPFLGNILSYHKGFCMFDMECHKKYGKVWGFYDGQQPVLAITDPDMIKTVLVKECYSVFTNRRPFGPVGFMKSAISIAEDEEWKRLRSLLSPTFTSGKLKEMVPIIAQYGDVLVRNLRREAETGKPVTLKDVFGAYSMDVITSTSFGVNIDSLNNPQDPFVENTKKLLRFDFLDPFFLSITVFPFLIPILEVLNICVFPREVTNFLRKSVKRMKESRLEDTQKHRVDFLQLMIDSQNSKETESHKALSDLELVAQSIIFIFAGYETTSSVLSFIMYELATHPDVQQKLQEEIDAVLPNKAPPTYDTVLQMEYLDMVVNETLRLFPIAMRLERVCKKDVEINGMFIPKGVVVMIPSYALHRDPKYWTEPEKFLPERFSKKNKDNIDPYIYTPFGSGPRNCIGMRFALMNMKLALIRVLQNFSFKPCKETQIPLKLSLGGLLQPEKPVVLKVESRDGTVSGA
Sequence of Voltage-gated inwardly rectifying potassium channel KCNH2 (Q12809 whole entry): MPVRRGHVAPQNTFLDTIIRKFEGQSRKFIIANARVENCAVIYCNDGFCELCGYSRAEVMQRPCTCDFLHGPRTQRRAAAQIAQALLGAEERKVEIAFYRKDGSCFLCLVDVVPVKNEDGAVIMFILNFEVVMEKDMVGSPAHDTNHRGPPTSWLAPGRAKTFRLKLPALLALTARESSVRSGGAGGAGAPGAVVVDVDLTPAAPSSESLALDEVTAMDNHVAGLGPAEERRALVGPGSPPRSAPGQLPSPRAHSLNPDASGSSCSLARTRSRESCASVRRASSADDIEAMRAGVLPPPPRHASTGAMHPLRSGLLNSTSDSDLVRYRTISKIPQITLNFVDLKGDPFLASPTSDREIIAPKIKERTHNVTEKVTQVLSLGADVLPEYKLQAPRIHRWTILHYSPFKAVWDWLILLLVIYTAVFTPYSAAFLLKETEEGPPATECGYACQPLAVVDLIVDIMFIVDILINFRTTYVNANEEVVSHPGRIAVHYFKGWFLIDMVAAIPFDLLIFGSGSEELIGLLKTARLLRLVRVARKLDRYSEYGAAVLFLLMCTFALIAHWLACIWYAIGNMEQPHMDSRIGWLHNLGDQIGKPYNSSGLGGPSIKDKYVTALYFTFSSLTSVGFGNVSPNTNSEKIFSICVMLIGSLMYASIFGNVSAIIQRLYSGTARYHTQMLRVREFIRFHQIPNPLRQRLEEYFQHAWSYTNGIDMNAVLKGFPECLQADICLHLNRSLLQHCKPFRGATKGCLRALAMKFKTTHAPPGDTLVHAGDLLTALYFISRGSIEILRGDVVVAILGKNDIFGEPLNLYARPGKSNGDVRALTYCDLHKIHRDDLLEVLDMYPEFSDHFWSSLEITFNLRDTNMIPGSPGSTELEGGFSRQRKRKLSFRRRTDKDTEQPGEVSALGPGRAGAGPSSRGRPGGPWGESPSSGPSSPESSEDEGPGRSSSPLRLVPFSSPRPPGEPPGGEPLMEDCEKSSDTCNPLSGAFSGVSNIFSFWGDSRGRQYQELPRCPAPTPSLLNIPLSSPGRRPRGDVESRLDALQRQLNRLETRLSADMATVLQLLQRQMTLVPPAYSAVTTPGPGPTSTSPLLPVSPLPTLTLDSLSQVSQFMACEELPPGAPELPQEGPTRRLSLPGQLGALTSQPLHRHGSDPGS
Sequence of Cytochrome P450 2D6 (P10635 whole entry): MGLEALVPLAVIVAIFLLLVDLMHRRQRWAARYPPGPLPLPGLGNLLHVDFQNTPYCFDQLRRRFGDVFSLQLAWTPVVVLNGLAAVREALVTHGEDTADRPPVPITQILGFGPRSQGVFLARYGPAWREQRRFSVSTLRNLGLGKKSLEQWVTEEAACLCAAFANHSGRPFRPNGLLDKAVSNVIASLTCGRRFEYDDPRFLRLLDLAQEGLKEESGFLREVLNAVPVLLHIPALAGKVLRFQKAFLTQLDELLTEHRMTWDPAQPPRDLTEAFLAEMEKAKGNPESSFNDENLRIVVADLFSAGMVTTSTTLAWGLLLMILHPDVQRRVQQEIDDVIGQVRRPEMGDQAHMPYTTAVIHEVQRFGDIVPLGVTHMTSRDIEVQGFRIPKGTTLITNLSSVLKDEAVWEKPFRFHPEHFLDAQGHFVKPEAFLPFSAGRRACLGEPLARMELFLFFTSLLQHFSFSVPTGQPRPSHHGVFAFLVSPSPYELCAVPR
Sequence of Cytochrome P450 2C19 (P33261 whole entry): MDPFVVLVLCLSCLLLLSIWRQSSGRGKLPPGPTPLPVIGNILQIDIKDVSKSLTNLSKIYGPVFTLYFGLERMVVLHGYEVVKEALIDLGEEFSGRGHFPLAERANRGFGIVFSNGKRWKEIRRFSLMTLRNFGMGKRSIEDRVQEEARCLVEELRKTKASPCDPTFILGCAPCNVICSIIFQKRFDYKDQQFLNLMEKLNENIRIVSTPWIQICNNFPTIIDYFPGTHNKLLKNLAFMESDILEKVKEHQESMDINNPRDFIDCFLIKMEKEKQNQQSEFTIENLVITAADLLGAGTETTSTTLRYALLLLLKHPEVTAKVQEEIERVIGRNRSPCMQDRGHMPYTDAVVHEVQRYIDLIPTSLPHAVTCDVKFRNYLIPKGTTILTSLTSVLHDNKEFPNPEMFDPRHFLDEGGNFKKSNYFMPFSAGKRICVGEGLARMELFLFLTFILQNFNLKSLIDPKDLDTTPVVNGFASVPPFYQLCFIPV

In the case of `Cc1onc(-c2ccc(F)cc2)c1COc1ccc2c(n1)CCN(C(=O)CS(C)(=O)=O)C2`, the IC50 in [1] was more than 50 µM; in [2], 14.6 µM; in data set [9] it was more than 50 µM; in [10] it was 6.2 µM; in data set [22] it was more than 50 µM. For the same molecule, the Ratio in data set [3] turned out to be 11; in [5], 0.93. Also, the Activity is -24% in data set [4] and -2% in data set [18]. In [6], the minimal effective dose worked out at 10 mg/kg. Moreover, the hepatocyte CLint in data set [7] is 3 µL/min/1e6 cells. This molecule returned a bioavailability in [8] of 35.8%. Further, in [11], the result was Active. The same molecule gave a Cmax in data set [12] of 115 ng/mL. In addition, the Vd in data set [13] was 1.9 L/kg. Moreover, the AUC(0-inf) in data set [14] was 407 ng·h/mL. Also, the “Cp(f)” value in data set [15] came out at 6.9 nM. Also, in [16], the microsomal CLint at 2.5 µM turned out to be 6 µL/min/mg. Further, the fraction unbound in [17] is 0.05. Further, the Selectivity ratio in [19] is more than 40. This molecule also had a half-life in data set [20] of 31.8 min. The Papp at 1 µM in data set [21] was determined as 43 ×10⁻⁶ cm/s.
